# Source: patent publication US20250127162A1, “METHODS AND COMPOSITIONS FOR CONTROLLING PESTS IN RICE” (Globachem NV, priority 2022, published 2025)
# Tested on: Chilo suppressalis
# Assay: Rice field trials, Chilo suppressalis insect damage / white heads (Example 1, Trials 3-4, Thailand)
# Format: in vivo
# Conditions: Trial 3
# Method: All applications were made with an EC formulation containing 650 g/L of pelargonic acid (e.g., 685 g/L of 95% purity pelargonic acid), an anionic emulsifier and a branched fatty acid ester solvent. […] Trials 1 4 assessing the use of pelargonic acid for controlling Chilo suppressalis in rice were conducted in Spain and Thailand. Application A was made to the crops at the beginning of infestations; for these trials, Stage BBCH 59; Application B was made 14 days after Application A. Trial 3 was conducted in Thailand using a water volume of 500 L/ha of water per application unless otherwise indicated. Insect Damage ([…] %), Insect Damage (Number) and Phytotoxicity were assessed at various treatment evaluation intervals. Population levels were recorded by counting number of rice plants per hill, number of white head (damage from rice stem borer) followed by calculation of % insect damage. Trial 4 was conducted in Thailand using a water volume of 500 L/ha of water per application unless otherwise indicated. Insect Damage ([…] %), Insect Damage (Number) and Phytotoxicity were assessed at various treatment evaluation intervals. Population levels were recorded by counting number of rice plants per hill, number of white head (damage from rice stem borer) followed by calculation of % insect damage.
# [1] = 0 DAA, water volume 500 L/ha, rate in treatment name, Prevathon 0.5 L/ha, listed as PA 585 g/ha
# [2] = 0 DAA, water volume 500 L/ha, rate in treatment name, Prevathon 0.5 L/ha, listed as PA 975 g/ha
# [3] = 0 DAA, water volume 500 L/ha, rate in treatment name, Prevathon 0.5 L/ha, listed as PA 1300 g/ha
# [4] = 0 DAA, water volume 500 L/ha, rate in treatment name, Prevathon 0.5 L/ha, listed as PA 2600 g/ha
# [5] = 0 DAB, water volume 500 L/ha, rate in treatment name, Prevathon 0.5 L/ha, listed as PA 585 g/ha
# [6] = 0 DAB, water volume 500 L/ha, rate in treatment name, Prevathon 0.5 L/ha, listed as PA 975 g/ha
# [7] = 0 DAB, water volume 500 L/ha, rate in treatment name, Prevathon 0.5 L/ha, listed as PA 1300 g/ha
# [8] = 0 DAB, water volume 500 L/ha, rate in treatment name, Prevathon 0.5 L/ha, listed as PA 2600 g/ha
# [9] = 7 DAA, water volume 500 L/ha, rate in treatment name, Prevathon 0.5 L/ha, listed as PA 585 g/ha
# [10] = 7 DAA, water volume 500 L/ha, rate in treatment name, Prevathon 0.5 L/ha, listed as PA 975 g/ha
# [11] = 7 DAA, water volume 500 L/ha, rate in treatment name, Prevathon 0.5 L/ha, listed as PA 1300 g/ha
# [12] = 7 DAA, water volume 500 L/ha, rate in treatment name, Prevathon 0.5 L/ha, listed as PA 2600 g/ha
# [13] = 7 DAB, water volume 500 L/ha, rate in treatment name, Prevathon 0.5 L/ha, listed as PA 585 g/ha
# [14] = 7 DAB, water volume 500 L/ha, rate in treatment name, Prevathon 0.5 L/ha, listed as PA 975 g/ha
# [15] = 7 DAB, water volume 500 L/ha, rate in treatment name, Prevathon 0.5 L/ha, listed as PA 1300 g/ha
# [16] = 7 DAB, water volume 500 L/ha, rate in treatment name, Prevathon 0.5 L/ha, listed as PA 2600 g/ha
# [17] = 10 DAA, water volume 500 L/ha, rate in treatment name, Prevathon 0.5 L/ha, listed as PA 585 g/ha
# [18] = 10 DAA, water volume 500 L/ha, rate in treatment name, Prevathon 0.5 L/ha, listed as PA 975 g/ha
# [19] = 10 DAA, water volume 500 L/ha, rate in treatment name, Prevathon 0.5 L/ha, listed as PA 1300 g/ha
# [20] = 10 DAA, water volume 500 L/ha, rate in treatment name, Prevathon 0.5 L/ha, listed as PA 2600 g/ha
# [21] = 10 DAB, water volume 500 L/ha, rate in treatment name, Prevathon 0.5 L/ha, listed as PA 585 g/ha
# [22] = 10 DAB, water volume 500 L/ha, rate in treatment name, Prevathon 0.5 L/ha, listed as PA 975 g/ha
# [23] = 10 DAB, water volume 500 L/ha, rate in treatment name, Prevathon 0.5 L/ha, listed as PA 1300 g/ha
# [24] = 10 DAB, water volume 500 L/ha, rate in treatment name, Prevathon 0.5 L/ha, listed as PA 2600 g/ha
# [25] = 14 DAB, water volume 500 L/ha, rate in treatment name, Prevathon 0.5 L/ha, listed as PA 585 g/ha
# [26] = 14 DAB, water volume 500 L/ha, rate in treatment name, Prevathon 0.5 L/ha, listed as PA 975 g/ha
# [27] = 14 DAB, water volume 500 L/ha, rate in treatment name, Prevathon 0.5 L/ha, listed as PA 1300 g/ha
# [28] = 14 DAB, water volume 500 L/ha, rate in treatment name, Prevathon 0.5 L/ha, listed as PA 2600 g/ha
# [29] = 21 DAB, water volume 500 L/ha, rate in treatment name, Prevathon 0.5 L/ha, listed as PA 585 g/ha
# [30] = 21 DAB, water volume 500 L/ha, rate in treatment name, Prevathon 0.5 L/ha, listed as PA 975 g/ha
# [31] = 21 DAB, water volume 500 L/ha, rate in treatment name, Prevathon 0.5 L/ha, listed as PA 1300 g/ha
smiles,measurement,setting,value
"CCCCCCCCC(=O)O [PA 650 g/ha, pelargonic acid]","DAMINS % (insect damage, % white heads)","0 DAA, water volume 200 L/ha",0.83%
same,DAMINS (number): mean number of insect damage (white head symptoms),"0 DAA, water volume 200 L/ha",3.4
same,"DAMINS % (insect damage, % white heads)",[1],0.79%
same,DAMINS (number): mean number of insect damage (white head symptoms),[1],3.23
same,"DAMINS % (insect damage, % white heads)",[2],0.9%
same,DAMINS (number): mean number of insect damage (white head symptoms),[2],3.8
same,"DAMINS % (insect damage, % white heads)",[3],0.75%
same,DAMINS (number): mean number of insect damage (white head symptoms),[3],3.11
same,"DAMINS % (insect damage, % white heads)",[4],0.74%
same,DAMINS (number): mean number of insect damage (white head symptoms),[4],3.14
same,"DAMINS % (insect damage, % white heads)","0 DAB, water volume 200 L/ha",0.25%
same,DAMINS (number): mean number of insect damage (white head symptoms),"0 DAB, water volume 200 L/ha",0.94
same,"DAMINS % (insect damage, % white heads)",[5],0.6%
same,DAMINS (number): mean number of insect damage (white head symptoms),[5],2.54
same,"DAMINS % (insect damage, % white heads)",[6],0.46%
same,DAMINS (number): mean number of insect damage (white head symptoms),[6],1.91
same,"DAMINS % (insect damage, % white heads)",[7],0.39%
same,DAMINS (number): mean number of insect damage (white head symptoms),[7],1.61
same,"DAMINS % (insect damage, % white heads)",[8],0.29%
same,DAMINS (number): mean number of insect damage (white head symptoms),[8],1.23
same,"DAMINS % (insect damage, % white heads)","7 DAA, water volume 200 L/ha",0.29%
same,DAMINS (number): mean number of insect damage (white head symptoms),"7 DAA, water volume 200 L/ha",1.16
same,"DAMINS % (insect damage, % white heads)",[9],0.65%
same,DAMINS (number): mean number of insect damage (white head symptoms),[9],2.93
same,"DAMINS % (insect damage, % white heads)",[10],0.53%
same,DAMINS (number): mean number of insect damage (white head symptoms),[10],2.13
same,"DAMINS % (insect damage, % white heads)",[11],0.4%
same,DAMINS (number): mean number of insect damage (white head symptoms),[11],1.74
same,"DAMINS % (insect damage, % white heads)",[12],0.39%
same,DAMINS (number): mean number of insect damage (white head symptoms),[12],1.79
same,"DAMINS % (insect damage, % white heads)","7 DAB, water volume 200 L/ha",0.55%
same,DAMINS (number): mean number of insect damage (white head symptoms),"7 DAB, water volume 200 L/ha",2.4
same,"DAMINS % (insect damage, % white heads)",[13],0.84%
same,DAMINS (number): mean number of insect damage (white head symptoms),[13],3.82
same,"DAMINS % (insect damage, % white heads)",[14],0.73%
same,DAMINS (number): mean number of insect damage (white head symptoms),[14],3.31
same,"DAMINS % (insect damage, % white heads)",[15],0.64%
same,DAMINS (number): mean number of insect damage (white head symptoms),[15],2.84
same,"DAMINS % (insect damage, % white heads)",[16],0.49%
same,DAMINS (number): mean number of insect damage (white head symptoms),[16],2.24
same,"DAMINS % (insect damage, % white heads)","10 DAA, water volume 200 L/ha",0.25%
same,DAMINS (number): mean number of insect damage (white head symptoms),"10 DAA, water volume 200 L/ha",0.99
same,"DAMINS % (insect damage, % white heads)",[17],0.63%
same,DAMINS (number): mean number of insect damage (white head symptoms),[17],2.92
same,"DAMINS % (insect damage, % white heads)",[18],0.58%
same,DAMINS (number): mean number of insect damage (white head symptoms),[18],2.26
same,"DAMINS % (insect damage, % white heads)",[19],0.41%
same,DAMINS (number): mean number of insect damage (white head symptoms),[19],1.77
same,"DAMINS % (insect damage, % white heads)",[20],0.31%
same,DAMINS (number): mean number of insect damage (white head symptoms),[20],1.49
same,"DAMINS % (insect damage, % white heads)","10 DAB, water volume 200 L/ha",0.44%
same,DAMINS (number): mean number of insect damage (white head symptoms),"10 DAB, water volume 200 L/ha",1.84
same,"DAMINS % (insect damage, % white heads)",[21],0.71%
same,DAMINS (number): mean number of insect damage (white head symptoms),[21],3.39
same,"DAMINS % (insect damage, % white heads)",[22],0.66%
same,DAMINS (number): mean number of insect damage (white head symptoms),[22],3.11
same,"DAMINS % (insect damage, % white heads)",[23],0.38%
same,DAMINS (number): mean number of insect damage (white head symptoms),[23],1.65
same,"DAMINS % (insect damage, % white heads)",[24],0.33%
same,DAMINS (number): mean number of insect damage (white head symptoms),[24],1.39
same,"DAMINS % (insect damage, % white heads)","14 DAB, water volume 200 L/ha",0.39%
same,DAMINS (number): mean number of insect damage (white head symptoms),"14 DAB, water volume 200 L/ha",1.53
same,"DAMINS % (insect damage, % white heads)",[25],0.56%
same,DAMINS (number): mean number of insect damage (white head symptoms),[25],2.35
same,"DAMINS % (insect damage, % white heads)",[26],0.64%
same,DAMINS (number): mean number of insect damage (white head symptoms),[26],2.82
same,"DAMINS % (insect damage, % white heads)",[27],0.45%
same,DAMINS (number): mean number of insect damage (white head symptoms),[27],1.94
same,"DAMINS % (insect damage, % white heads)",[28],0.3%
same,DAMINS (number): mean number of insect damage (white head symptoms),[28],1.25
same,"DAMINS % (insect damage, % white heads)","21 DAB, water volume 200 L/ha",0.36%
same,DAMINS (number): mean number of insect damage (white head symptoms),"21 DAB, water volume 200 L/ha",1.47
same,"DAMINS % (insect damage, % white heads)",[29],0.8%
same,DAMINS (number): mean number of insect damage (white head symptoms),[29],3.41
same,"DAMINS % (insect damage, % white heads)",[30],0.6%
same,DAMINS (number): mean number of insect damage (white head symptoms),[30],2.7
same,"DAMINS % (insect damage, % white heads)",[31],0.39%
same,DAMINS (number): mean number of insect damage (white head symptoms),[31],1.64
